# Laboratory results: patent US20230181520A1, “USE OF HYDROPEROXY ALCOHOLS AND THE DERIVATIVES THEREOF AS ANTIMICROBIAL AGENTS” (DEMETA, priority 2019, published 2023)
# What was measured:
# Assay type in all cases: cell-based
# Pseudomonas aeruginosa = experiment: Surface antibacterial test, CFU count on support; details: P. aeruginosa; 24 h of contact at ambient temperature; sample solution 10 000 ppm in DMSO dried on inert support
# Experimental: The tests were carried out at the surface: a solution of sample at 10 000 ppm in DMSO for a sample of HPA at 72% purity (i.e. […] of active material) was dried on an inert support. Once the solution had dried, a volume of inoculum of each bacterial strain was placed on the support in contact with the sample for 0 and 24 h at ambient temperature. In order to verify the nontoxicity of the DMSO, a pure solution of DMSO was dried on the support under the same conditions as the samples. A nontreated support (noted support control in FIG. 1) was also inoculated, in order to verify the stability of the strains under the conditions of the test. In order to quantify the contamination at each measurement time, a count was performed by spreading out, at the surface or in the mass, of decimal dilutions of the sample on TSA agar or Columbia agar (for C. acnes). The results were expressed in “colony-forming units” (CFUs) on the support. The Bacterial Strains Targeted are: Gram−: Pseudomonas aeruginosa
# Enterococcus hirae = experiment: Surface antibacterial test, CFU count on support; details: E. hirae; 24 h of contact at ambient temperature; sample solution 10 000 ppm in DMSO dried on inert support
# Experimental: (§1) The tests were carried out at the surface: a solution of sample at 10 000 ppm in DMSO for a sample of HPA at 72% purity (i.e. […] of active material) was dried on an inert support. Once the solution had dried, a volume of inoculum of each bacterial strain was placed on the support in contact with the sample for 0 and 24 h at ambient temperature. In order to verify the nontoxicity of the DMSO, a pure solution of DMSO was dried on the support under the same conditions as the samples. A nontreated support (noted support control in FIG. 1) was also inoculated, in order to verify the stability of the strains under the conditions of the test. In order to quantify the contamination at each measurement time, a count was performed by spreading out, at the surface or in the mass, of decimal dilutions of the sample on TSA agar or Columbia agar (for C. acnes). The results were expressed in “colony-forming units” (CFUs) on the support. The Bacterial Strains Targeted are: Gram+: Cutibacterium acnes, Enterococcus hirae, Staphylococcus aureus
# Staphylococcus aureus = experiment: Surface antibacterial test, CFU count on support; details: S. aureus; 24 h of contact at ambient temperature; sample solution 10 000 ppm in DMSO dried on inert support
# Experimental: as §1
# Cutibacterium acnes = experiment: Surface antibacterial test, CFU count on support (Columbia agar); details: C. acnes; 24 h of contact at ambient temperature; sample solution 10 000 ppm in DMSO dried on inert support
# Experimental: as §1
substance,measurement,setting,value
9(10)-hydroperoxy-10(9)-hydroxystearic acid [hydroperoxy alcohol of oleic acid],logarithmic reduction in the population relative to t=0,Pseudomonas aeruginosa,approximately 4 log 10
same,logarithmic reduction of the population relative to t=0,Enterococcus hirae,approximately 5 log 10
same,logarithmic reduction of the population relative to t=0,Staphylococcus aureus,approximately 5 log 10
same,logarithmic reduction of the population relative to t=0,Cutibacterium acnes,approximately 6 log 10
